Among the data in patent US20180132458A1, “TRANSGENIC ANIMAL MODELS FOR CYSTIC FIBROSIS” (THE REGENTS OF THE UNIVERSITY OF MICHIGAN, priority 2016, published 2018) are forskolin-stimulated current blocked values, retold here.

The test system of the test is forskolin/IBMX-stimulated CFTR Cl current in ileum tissue. Description: Short-circuit current of freshly excised ileum tissue measured by Ussing chamber. The test is classed as cell-based, rabbit. The following applies: CFTR+/+ rabbits. The method, then: (Panel A) Immunocytochemistry of lungs and small intestines from CFTR+/+ and CFTR−/− rabbits. Red: CFTR; blue: nuclei. (Panel B) Short circuit current measurements of small intestines from CFTR+/+ and CFTR−/− rabbits after treated 1 μM indomethcin.
CFTR expression in the airways and in the small intestines of wild-type and CFTR−/− rabbits was evaluated by immunoflorescence. […] Next, CFTR Cl secretion in these animals were examined. Ileum tissues from CFTR+/+ and CFTR−/− rabbits were used for CFTR functional assay. Short-circuit currents from these tissues with muscle layer on serosal side removed were measured by Ussing chamber. […] This situation was also observed in ferrets and pigs.

Turning to `CCCCNc1cc(C(=O)O)cc(S(N)(=O)=O)c1Oc1ccccc1` [bumetanide], the forskolin-stimulated current blocked result is “more than 50%”.
With `O=C(CNc1ccc2ccccc2c1)N/N=C/c1cc(Br)c(O)c(Br)c1O` [GlyH101], the forskolin-stimulated current blocked result (GlyH101 at 10 μM) was “Only a small fraction”.
